{"source": "patent US7691392B2", "about": "(Kosan Biosciences Incorporated, priority 2005, dated 2010)", "key": {"Hsp70": {"system": "Hsp70", "conditions": "320-450 mg/m^2/week; cited from earlier work"}, "breast cancer cells": {"system": "breast cancer cells", "conditions": "exposure to 17-AAG; cited from earlier work"}, "[1]": {"conditions": "weekly dosing schedule; cited from earlier work"}, "AKT": {"system": "AKT", "assay": "AKT+ cells in bone marrow aspirates"}, "solid tumors": {"system": "solid tumors", "conditions": "adult patients with solid tumors; cited from earlier work"}, "multiple myeloma": {"system": "multiple myeloma", "assay": "Anti-myeloma response (Bladé criteria) in the dose escalating trial", "assay_type": "in vivo, human", "description": "The method of the invention was tested in an open-label, dose escalating clinical trial.\nDisease response evaluations were performed following every two cycles of treatment (approximately every 6 weeks). The determination of anti-tumor efficacy in stable or responding patients was based on objective tumor assessments made according to a standardized myeloma response assessment system.\nAll patients with responding tumors (CR or PR) were examined to confirm the response 6 weeks after the first documentation of response."}, "[2]": {"system": "diffuse GFP positive MM lesions", "conditions": "survival analysis; cited from earlier work"}, "[3]": {"system": "solid tumors and lymphomas", "conditions": "patients with solid tumors and lymphomas; cited from earlier work"}, "CD138+ myeloma cells": {"system": "CD138+ myeloma cells", "assay": "Abnormal mitochondrial potential (apoptosis) of CD138+ cells from bone marrow aspirates", "assay_type": "in vivo, human", "excerpt": "PD assessment included the following tests: The occurrence of specific toxicities (e.g., severity, duration and reversibility) was compared to PK parameters (e.g., clearance, exposure, elimination half-life, maximal plasma concentration, and time above a target plasma concentration). These toxicities included hepatotoxicity and gastrointestinal toxicities. The laboratory correlates included a) surface expression of insulin-like growth factor receptor-1 (IGF-1R) and b), total expression of Akt, Hsp90 and Hsp70. […] Immunoblotting analyses were used to evaluate the total levels of Akt, Hsp90 and Hsp70. […] Finally, peripheral blood mononuclear cells were isolated on two occasions (the first and last infusion in Cycle 1, on Days 1 and 11) prior to and 4 hours following the infusion. Cells were examined for change in client protein expression by Western Blot. Client proteins of interest include Hsp70, RAF1, LCK and CDK4 and others as indicated.\nMM cells were purified by a Fluorescence Activated Cell Sorter (FACS) from the BMA based upon CD138 expression. These CD138^+ cells collected were then tested for abnormal mitochondrial potential by measuring mitochondrial potential in plasma cells using […] (BD Biosciences, San Jose, Calif.). […] Abnormal mitochondrial potential is observed prior to apoptosis of that cell (programmed cell death)."}, "plasma protein": {"system": "plasma protein", "assay": "Plasma protein binding, in vitro assays using human blood"}, "[4]": {"conditions": "Day 11 versus prior to treatment"}, "[5]": {"conditions": "screening versus Day 11, 150 and 220 mg/m^2 doses"}}, "note": "“Also recorded” adds a separate entry of the source.", "data": [{"molecule": "C=CCNC1=C2C[C@@H](C)C[C@H](OC)[C@H](O)[C@@H](C)/C=C(\\C)[C@H](OC(N)=O)[C@@H](OC)/C=C\\C=C(/C)C(=O)NC(=CC1=O)C2=O", "note": "[17-AAG, 17-Allylamino-17-demethoxygeldanamycin]", "values": [{"measurement": "patients with induction of the co-chaperone protein Hsp70", "setting": "Hsp70", "value": "8 of 9"}, {"measurement": "effect on client proteins", "setting": "breast cancer cells", "value": "depletion of steroid receptors"}, {"measurement": "Vss", "setting": "[1]", "value": "130 ± 50", "unit": "L"}, {"measurement": "t1/2", "setting": "[1]", "value": "2.98 ± 1.0", "unit": "h"}, {"measurement": "percent of AKT+ cells over total BM cells", "setting": "AKT; Day 11 of treatment (more than 20% prior to treatment), p=0.057, FIG. 10", "value": "less than 10%"}, {"measurement": "decrease in percent of AKT+ cells", "setting": "AKT; [4]", "value": "more than 10%"}, {"measurement": "Akt / pAKT in BMAs", "setting": "AKT; [5]", "value": "decreased Akt; also recorded: decrease in pAKT"}, {"measurement": "objective tumor responses", "setting": "solid tumors", "value": "No objective tumor responses were observed"}, {"measurement": "disease response", "setting": "multiple myeloma; 150 mg/m^2 twice weekly 2 of 3 weeks, four evaluable patients", "value": "One showed a MR; also recorded: one patient had a MR, two had stable disease and one had progressive disease"}, {"measurement": "disease response", "setting": "multiple myeloma; 220 mg/m^2 twice weekly 2 of 3 weeks, seven evaluable patients", "value": "four are stable disease and three are progressive disease; also recorded: four patients had stable disease and three had progressive disease"}, {"measurement": "disease response", "setting": "multiple myeloma; 275 mg/m^2 twice weekly 2 of 3 weeks, three evaluable patients", "value": "all three had stable disease"}, {"measurement": "disease response", "setting": "multiple myeloma; 340 mg/m^2 twice weekly 2 of 3 weeks, five evaluable patients", "value": "two patients had stable disease and three had progressive disease"}, {"measurement": "percent of patients with stable disease", "setting": "multiple myeloma; 19 evaluable patients, after three or more cycles", "value": 58, "unit": "%"}, {"measurement": "percent of patients with response (MR)", "setting": "multiple myeloma; 19 evaluable patients, all dose levels", "value": 5, "unit": "%"}, {"measurement": "reduction of urine M-protein", "setting": "multiple myeloma; one patient considered a PR, withdrawn for skin rash and wheezing", "value": 90, "unit": "%"}, {"measurement": "reduction of urine M-protein", "setting": "multiple myeloma; one patient, 150 mg/m^2, after two cycles (MR), FIG. 12", "value": 41, "unit": "%"}, {"measurement": "reduction of serum M-spike", "setting": "multiple myeloma; one patient, 275 mg/m^2, after eight cycles (stable disease), FIG. 13", "value": 11, "unit": "%"}, {"measurement": "median overall survival", "setting": "[2]", "value": "significantly prolonged median overall survival"}, {"measurement": "objective tumor responses", "setting": "[3]", "value": "No objective tumor responses have been observed"}, {"measurement": "percent of CD138+ cells with abnormal mitochondrial potential in BM", "setting": "CD138+ myeloma cells; Day 11 of treatment (less than 5% prior to treatment), p=0.06, FIG. 9", "value": "more than 40%"}, {"measurement": "increase in percent of cells with abnormal mitochondrial potential", "setting": "CD138+ myeloma cells; [4]", "value": "more than 35%"}, {"measurement": "apoptosis in BMAs", "setting": "CD138+ myeloma cells; [5]", "value": "increased apoptosis; also recorded: increase in apoptosis"}, {"measurement": "protein bound in plasma", "setting": "plasma protein", "value": "approximately 95%"}]}]}
